According to patent US12234482B2, “Culture medium for expanding and culturing human liver progenitor cells and application thereof” (Guangzhou Institutes of Biomedicine and Health, Chinese …, priority 2019, dated 2025):

Test system: HBs
Test: Effects of signaling pathways regulated by small molecules on characteristics of HBs (AFP expression)
Type: cell-based, human
Details: FIG. 2D
From the text: In addition to proliferation, the effects of the related signaling pathways on the characteristics of HBs were further analyzed.

SMILES	expression of AFP / maintenance of the characteristics of HBs
Cc1cccc(-c2nn(C(=S)Nc3ccccc3)cc2-c2ccnc3ccccc23)n1 [A8301]	promoted the expression of liver cell-related genes such as AFP
Cc1c[nH]c(-c2cnc(NCCNc3ccc(C#N)cn3)nc2-c2ccc(Cl)cc2Cl)n1 [CHIR, CHIR99021]	inhibited the expression of AFP
CNC1CCC(N(Cc2cccc(-c3ccncc3)c2)C(=O)c2sc3ccccc3c2Cl)CC1 (stereo not drawn) [SAG]	promoted the expression of liver cell-related genes such as AFP

Test system: HBs
Test: Effects of signaling pathways regulated by small molecules on proliferation of HBs
Type: cell-based, human
Details: small molecule regulating a signaling pathway; FIGS. 2B and 2C
Description: Further, effects of the signaling pathways on the proliferation and differentiation of HBs were analyzed by regulating the related signaling pathways with small molecules.

SMILES	proliferation of HBs
Cc1cccc(-c2nn(C(=S)Nc3ccccc3)cc2-c2ccnc3ccccc23)n1 [A8301]	promoted the proliferation of HBs
Cc1c[nH]c(-c2cnc(NCCNc3ccc(C#N)cn3)nc2-c2ccc(Cl)cc2Cl)n1 [CHIR, CHIR99021]	promoted the proliferation of HBs
CNC1CCC(N(Cc2cccc(-c3ccncc3)c2)C(=O)c2sc3ccccc3c2Cl)CC1 (stereo not drawn) [SAG]	promoted the proliferation of HBs
